Source: the supplement of paper PMC8612539
Values after ≈ are worked out from the molar mass of the structure shown.

Tested on: Pasteurella multocida
Assay: minimum inhibitory concentration (MIC)
Procedure: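 Broth microdilution MIC (Sensititre BOPO7F bovine plate, CLSI methods) of 19 antimicrobials against field isolates of P. multocida, M. haemolytica, H. somni (deep nasopharyngeal swabs) and E. coli, Enterococcus spp. (rectal swabs) from weaned dairy heifers. Incubation 16-24 h at 35 C. MIC is the lowest concentration preventing visible growth. Values with <= or > lie at the tested range limits. Trimethoprim-sulfamethoxazole is given as the trimethoprim component of a 1:19 mixture.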

CC[C@H]1OC(=O)C[C@@H](O)[C@H](C)[C@@H](O[C@@H]2O[C@H](C)[C@@H](O)[C@H](N(C)C)[C@H]2O)[C@@H](CCN2C[C@H](C)C[C@H](C)C2)C[C@@H](C)C(=O)/C=C/C(C)=C/[C@@H]1CO[C@@H]1O[C@H](C)[C@@H](O)[C@@H](OC)[C@H]1OC [Tilmicosin]
Settings	minimum inhibitory concentration [µg/mL]
isolate (source animal id): 10	> 16
isolate (source animal id): 11	> 16
isolate (source animal id): 12	> 16
isolate (source animal id): 19	> 16
isolate (source animal id): 23	> 16
isolate (source animal id): 26	> 16
isolate (source animal id): 98	> 16
isolate (source animal id): 104	> 16
isolate (source animal id): 115	> 16
isolate (source animal id): 117	> 16
isolate (source animal id): 118	> 16
isolate (source animal id): 121	> 16
isolate (source animal id): 124	> 16
isolate (source animal id): 125	> 16
isolate (source animal id): 128	> 16
isolate (source animal id): 131	> 16
isolate (source animal id): 135	> 16
isolate (source animal id): 136	> 16
isolate (source animal id): 140	> 16
isolate (source animal id): 144	> 16
isolate (source animal id): 146	> 16
isolate (source animal id): 150	> 16
isolate (source animal id): 151	> 16
isolate (source animal id): 153	> 16
isolate (source animal id): 155	> 16
isolate (source animal id): 157	16 (≈ 18.4 µM)
isolate (source animal id): 160	> 16
isolate (source animal id): 164	> 16
isolate (source animal id): 165	> 16
isolate (source animal id): 167	8 (≈ 9.2 µM)
isolate (source animal id): 168	> 16
isolate (source animal id): 169	4 (≈ 4.6 µM)
isolate (source animal id): 170	16 (≈ 18.4 µM)
isolate (source animal id): 171	8 (≈ 9.2 µM)
isolate (source animal id): 172	8 (≈ 9.2 µM)
isolate (source animal id): 173	> 16
isolate (source animal id): 174	8 (≈ 9.2 µM)
isolate (source animal id): 175	8 (≈ 9.2 µM)
isolate (source animal id): 176	8 (≈ 9.2 µM)
isolate (source animal id): 177	8 (≈ 9.2 µM)
isolate (source animal id): 178	4 (≈ 4.6 µM)
isolate (source animal id): 179	4 (≈ 4.6 µM)
isolate (source animal id): 182	16 (≈ 18.4 µM)
isolate (source animal id): 192	4 (≈ 4.6 µM)
isolate (source animal id): 193	8 (≈ 9.2 µM)
isolate (source animal id): 195	8 (≈ 9.2 µM)
isolate (source animal id): 196	8 (≈ 9.2 µM)
isolate (source animal id): 197	16 (≈ 18.4 µM)
isolate (source animal id): 198	> 16
isolate (source animal id): 199	8 (≈ 9.2 µM)
isolate (source animal id): 200	4 (≈ 4.6 µM)
isolate (source animal id): 201	8 (≈ 9.2 µM)
isolate (source animal id): 203	4 (≈ 4.6 µM)
isolate (source animal id): 204	8 (≈ 9.2 µM)
isolate (source animal id): 205	> 16
isolate (source animal id): 206	8 (≈ 9.2 µM)
isolate (source animal id): 207	8 (≈ 9.2 µM)
isolate (source animal id): 208	4 (≈ 4.6 µM)
isolate (source animal id): 209	4 (≈ 4.6 µM)
isolate (source animal id): 210	> 16
isolate (source animal id): 213	8 (≈ 9.2 µM)
isolate (source animal id): 216	8 (≈ 9.2 µM)
isolate (source animal id): 223	> 16
isolate (source animal id): 227	4 (≈ 4.6 µM)
isolate (source animal id): 229	> 16
isolate (source animal id): 233	> 16
isolate (source animal id): 234	> 16
isolate (source animal id): 237	> 16
isolate (source animal id): 241	> 16
isolate (source animal id): 245	> 16
isolate (source animal id): 247	> 16
isolate (source animal id): 250	> 16
isolate (source animal id): 254	> 16
isolate (source animal id): 255	> 16
isolate (source animal id): 258	8 (≈ 9.2 µM)
isolate (source animal id): 261	> 16
isolate (source animal id): 262	> 16
